Drawing on ChEMBL document CHEMBL1909046, “DrugMatrix in vitro pharmacology data”, this text covers IC50 and Ki for 30 compounds.

One test concerns the target Histamine H2 receptor (Homo sapiens, UniProt P25021). Format: cell membranes, CHO-K1, Membrane. Further: in other assays of this panel Not Active means under 50% inhibition at 10 µM.
A short description of test [1]: DRUGMATRIX: Calcium Channel Type L, Benzothiazepine radioligand binding (ligand: [3H] Diltiazem). To be noted: Not Active = under 50% inhibition at 10 µM. Format: cell membranes, Rattus norvegicus, Wistar, Brain, Membrane.
In a further test the target is T1, Androgen receptor (Rattus norvegicus, UniProt P15207). Further: in other assays of this panel Not Active means under 50% inhibition at 10 µM.
T1 sequence (P15207 whole entry): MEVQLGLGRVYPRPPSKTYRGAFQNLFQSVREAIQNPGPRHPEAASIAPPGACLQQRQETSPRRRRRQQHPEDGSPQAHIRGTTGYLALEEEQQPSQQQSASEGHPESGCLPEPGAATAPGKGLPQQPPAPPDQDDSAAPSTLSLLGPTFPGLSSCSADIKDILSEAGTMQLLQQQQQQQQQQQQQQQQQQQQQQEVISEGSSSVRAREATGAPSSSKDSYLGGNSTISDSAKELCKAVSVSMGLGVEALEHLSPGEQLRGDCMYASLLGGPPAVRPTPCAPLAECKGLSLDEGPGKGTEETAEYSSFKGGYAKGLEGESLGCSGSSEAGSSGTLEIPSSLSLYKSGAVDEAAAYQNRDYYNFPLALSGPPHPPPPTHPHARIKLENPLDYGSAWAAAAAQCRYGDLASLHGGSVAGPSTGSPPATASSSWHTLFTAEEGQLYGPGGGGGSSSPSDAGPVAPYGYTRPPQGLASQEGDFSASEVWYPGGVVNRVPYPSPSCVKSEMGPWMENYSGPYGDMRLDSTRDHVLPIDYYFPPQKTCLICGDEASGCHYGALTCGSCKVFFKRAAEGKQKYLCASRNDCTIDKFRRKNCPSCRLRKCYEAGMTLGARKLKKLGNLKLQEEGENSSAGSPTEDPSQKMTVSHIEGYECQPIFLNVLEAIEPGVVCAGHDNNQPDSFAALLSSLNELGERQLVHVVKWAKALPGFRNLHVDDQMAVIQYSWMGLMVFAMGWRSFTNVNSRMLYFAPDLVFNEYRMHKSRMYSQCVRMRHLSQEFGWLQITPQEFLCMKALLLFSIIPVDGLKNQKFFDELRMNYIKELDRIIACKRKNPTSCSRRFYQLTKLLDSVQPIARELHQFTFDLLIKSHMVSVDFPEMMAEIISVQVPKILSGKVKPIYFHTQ

In a further test the target is Cytochrome P450 2D6 (Homo sapiens, UniProt P10635). Further: in other assays of this panel Not Active means under 50% inhibition at 10 µM.
Sequence of Cytochrome P450 2D6 (P10635 whole entry): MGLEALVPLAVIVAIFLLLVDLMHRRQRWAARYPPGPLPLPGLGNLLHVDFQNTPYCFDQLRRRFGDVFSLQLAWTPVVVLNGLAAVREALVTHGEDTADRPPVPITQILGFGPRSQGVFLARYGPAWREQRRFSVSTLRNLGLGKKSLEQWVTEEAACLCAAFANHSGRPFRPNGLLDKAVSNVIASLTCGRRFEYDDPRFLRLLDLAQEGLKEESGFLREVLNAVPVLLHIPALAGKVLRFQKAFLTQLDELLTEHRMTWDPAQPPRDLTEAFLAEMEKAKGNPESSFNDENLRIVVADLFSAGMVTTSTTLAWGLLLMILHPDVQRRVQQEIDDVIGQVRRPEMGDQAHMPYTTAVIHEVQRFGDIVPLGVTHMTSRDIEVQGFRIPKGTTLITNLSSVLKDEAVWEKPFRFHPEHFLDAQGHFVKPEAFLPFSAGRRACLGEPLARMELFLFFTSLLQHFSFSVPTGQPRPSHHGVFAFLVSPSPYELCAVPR
The next test concerns the target T2, Glucocorticoid receptor (Homo sapiens, UniProt P04150). Further: in other assays of this panel Not Active means under 50% inhibition at 10 µM.
T2 sequence (P04150 whole entry): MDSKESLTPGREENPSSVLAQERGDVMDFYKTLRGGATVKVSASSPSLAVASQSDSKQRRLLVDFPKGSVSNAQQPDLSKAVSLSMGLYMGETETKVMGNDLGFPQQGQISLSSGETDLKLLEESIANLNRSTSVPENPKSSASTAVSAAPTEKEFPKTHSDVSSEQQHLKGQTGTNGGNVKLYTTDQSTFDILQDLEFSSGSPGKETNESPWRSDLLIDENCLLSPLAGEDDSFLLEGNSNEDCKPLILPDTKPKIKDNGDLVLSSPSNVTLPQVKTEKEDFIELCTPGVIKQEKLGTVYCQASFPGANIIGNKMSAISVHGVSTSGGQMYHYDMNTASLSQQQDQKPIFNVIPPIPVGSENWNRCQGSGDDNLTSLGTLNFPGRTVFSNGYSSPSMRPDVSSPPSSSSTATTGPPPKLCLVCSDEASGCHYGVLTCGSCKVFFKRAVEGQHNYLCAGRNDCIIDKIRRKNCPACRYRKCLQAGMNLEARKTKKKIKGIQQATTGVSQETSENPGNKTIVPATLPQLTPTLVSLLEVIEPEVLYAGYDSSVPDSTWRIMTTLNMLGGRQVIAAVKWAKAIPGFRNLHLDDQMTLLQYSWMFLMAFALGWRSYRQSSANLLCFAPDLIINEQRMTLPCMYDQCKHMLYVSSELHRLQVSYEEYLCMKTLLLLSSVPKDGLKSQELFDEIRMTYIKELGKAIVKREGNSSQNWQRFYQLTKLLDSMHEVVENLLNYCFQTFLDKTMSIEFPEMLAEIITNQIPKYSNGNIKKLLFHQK
Kind of test: biochemical.

Sequence of Histamine H2 receptor (P25021 whole entry): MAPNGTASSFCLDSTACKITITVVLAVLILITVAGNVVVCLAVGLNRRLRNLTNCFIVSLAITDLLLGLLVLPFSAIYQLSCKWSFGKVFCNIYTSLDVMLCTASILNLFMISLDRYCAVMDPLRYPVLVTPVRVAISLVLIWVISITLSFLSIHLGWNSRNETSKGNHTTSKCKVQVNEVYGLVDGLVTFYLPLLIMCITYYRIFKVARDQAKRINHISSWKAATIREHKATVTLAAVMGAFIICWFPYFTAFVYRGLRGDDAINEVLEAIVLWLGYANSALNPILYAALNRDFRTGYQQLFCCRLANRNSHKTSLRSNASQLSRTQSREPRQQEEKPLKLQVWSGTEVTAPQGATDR

A word on the IC50: it is the concentration needed to halve the response being measured. In general, Ki refers to the dissociation constant of the complex between target and ligand, obtained from inhibition or displacement. With `c1ccc([C@H]2CN3CCSC3=N2)cc1` [LEVAMISOLE], the IC50 result (on Histamine H2 receptor (cho-k1); in test [1]) was “Not Active” throughout. Moreover, the Ki entry in test [1] was “Not Active”.

Turning to `CC[C@]1(O)C[C@H]2CN(CCc3c([nH]c4ccccc34)[C@@](C(=O)OC)(c3cc4c(cc3OC)N(C=O)[C@H]3[C@@](O)(C(=O)OC)[C@H](OC(C)=O)[C@]5(CC)C=CCN6CC[C@]43[C@@H]65)C2)C1` [VINCRISTINE], the IC50 result (against Histamine H2 receptor (cho-k1); in test [1]; against Androgen receptor) was “Not Active” throughout. In addition, the Ki entry in test [1] is “Not Active”.

Regarding `O=c1ncn2nc(Sc3ccc(F)cc3F)ccc2c1-c1c(Cl)cccc1Cl` [NEFLAMAPIMOD], the IC50 entry (on Histamine H2 receptor (cho-k1); in test [1]; on Androgen receptor) was “Not Active” each time. Further, in test [1], the Ki result is “Not Active”.

`NS(=O)(=O)c1cc2c(cc1Cl)NC(C(Cl)Cl)NS2(=O)=O` (stereo not drawn) [TRICHLORMETHIAZIDE]: the IC50 result against Histamine H2 receptor (cho-k1) was “Not Active”. For the same compound, in test [1], the IC50 entry is given as “Not Active” and the Ki entry is “Not Active”.

`CCCOc1ccccc1-c1nc2nn[nH]c2c(=O)[nH]1` [ZAPRINAST]: the IC50 entry on Histamine H2 receptor (cho-k1) is recorded as “Not Active”. For the same compound, in test [1], the concentration for half-maximal inhibition (IC50) entry is listed as “Not Active” and the Ki result is “Not Active”.

Consider `N#CC(C#N)=Cc1ccc(O)c(O)c1` [TYRPHOSTIN 23], for which the IC50 result (on Histamine H2 receptor (cho-k1); in test [1]; against Androgen receptor) was “Not Active” in each case. Besides, the Ki entry in test [1] was “Not Active”.

As for `C=CCC1(C(C)CCC)C(=O)NC(=O)NC1=O` (stereo not drawn) [SECOBARBITAL], the IC50 result against Histamine H2 receptor (cho-k1) is “Not Active”. Moreover, in test [1], the IC50 result is “Not Active” and the Ki entry is given as “Not Active”.

As to `OCCN(CCO)c1nc(N2CCCCC2)c2nc(N(CCO)CCO)nc(N3CCCCC3)c2n1` [DIPYRIDAMOLE], the IC50 result (on Histamine H2 receptor (cho-k1); in test [1]; on Androgen receptor) was “Not Active” each time. Besides, in test [1], the inhibition constant (Ki) result is reported as “Not Active”.

With `Nc1c2c(nc3ccccc13)CCCC2` [TACRINE], the results for the IC50 entry (against Histamine H2 receptor (cho-k1); in test [1]; against Cytochrome P450 2D6) were “Not Active”, “Not Active” and 300 nM, respectively. In test [1], the Ki entry is on record as “Not Active”.

For the compound `Cn1ccnc1S` [METHIMAZOLE], at Histamine H2 receptor (cho-k1), the IC50 result is “Not Active”. Moreover, in test [1], the IC50 entry is given as “Not Active” and the Ki entry is listed as “Not Active”.

As for `N[C@@H]1[C@H]2CN(c3nc4c(cc3F)c(=O)c(C(=O)O)cn4-c3ccc(F)cc3F)C[C@@H]12` [TROVAFLOXACIN], the IC50 result (at Histamine H2 receptor (cho-k1); in test [1]; against Androgen receptor) was “Not Active” throughout. In test [1], the Ki result is recorded as “Not Active”.

Turning to `CC1(C)O[C@@H]2C[C@H]3[C@@H]4CCC5=CC(=O)C=C[C@]5(C)[C@@]4(F)[C@@H](O)C[C@]3(C)[C@]2(C(=O)CO)O1` [TRIAMCINOLONE ACETONIDE], the IC50 result is “Not Active” on Histamine H2 receptor (cho-k1), “Not Active” in test [1] and 4.41 nM on Glucocorticoid receptor. In addition, the Ki result was “Not Active” in test [1] and 2.01 nM on Glucocorticoid receptor.

Take `NC[C@H]1CC[C@H](C(=O)O)CC1` [TRANEXAMIC ACID]: the IC50 result (against Histamine H2 receptor (cho-k1); in test [1]) was “Not Active” in each case. For the same compound, the Ki result in test [1] is “Not Active”.

Consider `COc1c(C)c2c(c(O)c1C/C=C(\C)CCC(=O)O)C(=O)OC2` [MYCOPHENOLIC ACID], for which, at Histamine H2 receptor (cho-k1), the IC50 entry is listed as “Not Active”. In addition, in test [1], the 50% inhibitory concentration (IC50) result was “Not Active” and the Ki result is given as “Not Active”.

For the compound `CC/C(=C(\c1ccccc1)c1ccc(OCCN(C)C)cc1)c1ccccc1` [TAMOXIFEN], on Histamine H2 receptor (read-out: IC50), the IC50 worked out at 9.4 µM. At Histamine H2 receptor (read-out: Ki), the Ki is 9.24 µM.

With `N[C@@H](Cc1ccc(N(CCCl)CCCl)cc1)C(=O)O`, the IC50 result (against Histamine H2 receptor (cho-k1); in test [1]) was “Not Active” each time. For the same compound, in test [1], the Ki entry is listed as “Not Active”.

`CO[C@H]1/C=C/O[C@@]2(C)Oc3c(C)c(O)c4c(O)c(c(/C=N/N5CCN(C)CC5)c(O)c4c3C2=O)NC(=O)/C(C)=C\C=C\[C@H](C)[C@H](O)[C@@H](C)[C@@H](O)[C@@H](C)[C@H](OC(C)=O)[C@@H]1C` [RIFAMPIN]: the half-inhibitory concentration (IC50) entry (against Histamine H2 receptor (cho-k1); in test [1]) was “Not Active” throughout. Further, the Ki result in test [1] is “Not Active”.

`O=NN(CCCl)C(=O)NC1CCCCC1` [LOMUSTINE]: the IC50 entry on Histamine H2 receptor (cho-k1) is listed as “Not Active”. Moreover, in test [1], the IC50 entry was “Not Active” and the Ki entry is on record as “Not Active”.

On to `Nc1nc2ccc(OC(F)(F)F)cc2s1` [RILUZOLE], for which the IC50 result against Histamine H2 receptor (cho-k1) was “Not Active”. Besides, in test [1], the IC50 result is recorded as “Not Active” and the Ki entry is listed as “Not Active”.

As for SODIUM NITROPRUSSIDE, the IC50 entry (on Histamine H2 receptor (cho-k1); in test [1]; at Androgen receptor) was “Not Active” in each case. The Ki result (at Histamine H2 receptor (cho-k1); in test [1]; at Androgen receptor) was “Not Active” each time.

Consider `Cc1noc(NS(=O)(=O)c2ccc(N)cc2)c1C` [SULFISOXAZOLE], for which, at Histamine H2 receptor (cho-k1), the IC50 result is recorded as “Not Active”. Also, in test [1], the IC50 result is listed as “Not Active” and the Ki entry was “Not Active”.

For the compound `CC[C@@H](CO)NC(=O)[C@@H]1C=C2c3cccc4[nH]cc(c34)C[C@H]2N(C)C1` [METHYLERGONOVINE], the IC50 entry (against Histamine H2 receptor (cho-k1); in test [1]; against Androgen receptor) was “Not Active” each time. The Ki entry in test [1] was “Not Active”.

As for `CCOC(=O)N1CCC(=C2c3ccc(Cl)cc3CCc3cccnc32)CC1` [LORATADINE], at Histamine H2 receptor (cho-k1), the IC50 result was “Not Active”. Also, in test [1], the IC50 result was “Not Active” and the Ki result is reported as “Not Active”.

In the case of `CC(C)(C)NC(=O)[C@@H]1C[C@@H]2CCCC[C@@H]2CN1C[C@@H](O)[C@H](Cc1ccccc1)NC(=O)[C@H](CC(N)=O)NC(=O)c1ccc2ccccc2n1`, the IC50 result against Histamine H2 receptor (cho-k1) was “Not Active”; in test [1] (read-out: IC50) it was 10.9 µM. For the same compound, the Ki in test [1] (read-out: Ki) worked out at 9.69 µM.

Take `CC(C)N1CCN(c2ccc(OCC3COC(Cn4cncn4)(c4ccc(Cl)cc4Cl)O3)cc2)CC1` (stereo not drawn) [TERCONAZOLE]: the values for the IC50 result (against Histamine H2 receptor (cho-k1); in test [1] (read-out: IC50)) were “Not Active” and 3.01 µM, respectively. Also, the Ki in test [1] (read-out: Ki) amounted to 2.67 µM.

In the case of `Cc1nc2n(c(=O)c1CCN1CCC(c3noc4cc(F)ccc34)CC1)CCCC2` [RISPERIDONE], inhibition on Cytochrome P450 2D6 was half-maximal at 5270 nM (IC50).

As for `Nc1nc2nc[nH]c2c(=S)[nH]1` [THIOGUANINE], the IC50 entry (on Histamine H2 receptor (cho-k1); in test [1]; against Androgen receptor) was “Not Active” each time. Besides, in test [1], the Ki entry is on record as “Not Active”.

`COc1nc(C)nc(Cl)c1NC1=NCCN1` [MOXONIDINE]: the IC50 result (on Histamine H2 receptor (cho-k1); in test [1]) was “Not Active” throughout. For the same compound, in test [1], the Ki entry is listed as “Not Active”.

For `N[C@@H](Cc1cc(I)c(Oc2ccc(O)c(I)c2)c(I)c1)C(=O)O` [LIOTHYRONINE], the IC50 entry against Histamine H2 receptor (cho-k1) is on record as “Not Active”.

Take `N[C@@H](Cc1ccc(O)c(O)c1)C(=O)O` [LEVODOPA]: at Histamine H2 receptor (cho-k1), the IC50 entry is on record as “Not Active”. Also, in test [1], the IC50 result is recorded as “Not Active” and the Ki result is “Not Active”.
